Measurements reported in patent US12492188B2, “1H-benzo[D]imidazole derivatives as TLR9 inhibitors for the treatment of fibrosis” (BRISTOL-MYERS SQUIBB COMPANY, priority 2020, dated 2025).
Like-named read-outs stand apart in the source and are kept apart here.

Key:
Type in all cases: cell-based
human TLR9 = biological target: T1, human TLR9 (Homo sapiens, UniProt Q9NR96); assay: TLR9 inhibition reporter assay (HEK-Blue cells, secreted embryonic alkaline phosphatase reporter)
T1 construct: host or cells: HEK-Blue cells (HEK293-derived reporter line)
T1 sequence (Q9NR96 26-1032): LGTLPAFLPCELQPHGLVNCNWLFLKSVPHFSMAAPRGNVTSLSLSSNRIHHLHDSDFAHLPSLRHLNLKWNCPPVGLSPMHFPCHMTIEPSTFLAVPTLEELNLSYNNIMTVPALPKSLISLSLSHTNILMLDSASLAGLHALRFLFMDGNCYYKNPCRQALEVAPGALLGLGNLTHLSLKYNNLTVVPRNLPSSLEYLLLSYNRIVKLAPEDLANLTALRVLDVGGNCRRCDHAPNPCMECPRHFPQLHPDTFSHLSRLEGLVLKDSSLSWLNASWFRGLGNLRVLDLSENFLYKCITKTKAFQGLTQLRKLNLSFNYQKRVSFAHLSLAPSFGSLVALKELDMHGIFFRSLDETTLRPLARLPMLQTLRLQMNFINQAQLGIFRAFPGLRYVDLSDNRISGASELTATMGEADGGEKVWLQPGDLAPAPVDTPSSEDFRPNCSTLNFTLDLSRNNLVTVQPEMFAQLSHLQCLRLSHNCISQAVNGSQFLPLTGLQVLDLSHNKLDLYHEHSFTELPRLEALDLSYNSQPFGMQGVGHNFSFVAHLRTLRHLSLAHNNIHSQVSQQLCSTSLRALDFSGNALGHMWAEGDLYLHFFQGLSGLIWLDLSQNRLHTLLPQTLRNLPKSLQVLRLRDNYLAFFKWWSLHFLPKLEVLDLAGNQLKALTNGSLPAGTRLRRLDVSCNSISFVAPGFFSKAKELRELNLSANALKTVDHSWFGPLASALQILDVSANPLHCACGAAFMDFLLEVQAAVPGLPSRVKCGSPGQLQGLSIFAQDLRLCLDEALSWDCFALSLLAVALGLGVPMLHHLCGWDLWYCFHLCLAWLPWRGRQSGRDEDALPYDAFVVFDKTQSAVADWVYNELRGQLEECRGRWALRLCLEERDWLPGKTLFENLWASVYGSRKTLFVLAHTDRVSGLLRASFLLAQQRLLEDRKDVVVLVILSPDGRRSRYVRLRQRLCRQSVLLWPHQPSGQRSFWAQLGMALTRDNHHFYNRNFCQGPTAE
How it was run: (§1)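 Agonist-driven SEAP output was measured in HEK-Blue reporter cells carrying human TLR7 (gardiquimod 7.5 μM), TLR8 (R848 15.9 μM) or TLR9 (ODN2006 5 nM). Compounds at 0.05 nM–50 μM final were added 30 min before stimulation at room temperature. After 22 h at 37 °C, percent inhibition was taken against agonist/DMSO wells and a reference inhibitor.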

human TLR8 = biological target: T2, human TLR8 (Homo sapiens, UniProt Q9NR97); assay: TLR8 inhibition reporter assay (HEK-Blue cells, secreted embryonic alkaline phosphatase reporter); details: HEK-Blue cells overexpressing human TLR8, stimulated with R848 15.9 μM; read-out: TLR 8 IC50
T2 construct: host or cells: HEK-Blue cells (HEK293-derived reporter line)
T2 sequence (Q9NR97 27-1041): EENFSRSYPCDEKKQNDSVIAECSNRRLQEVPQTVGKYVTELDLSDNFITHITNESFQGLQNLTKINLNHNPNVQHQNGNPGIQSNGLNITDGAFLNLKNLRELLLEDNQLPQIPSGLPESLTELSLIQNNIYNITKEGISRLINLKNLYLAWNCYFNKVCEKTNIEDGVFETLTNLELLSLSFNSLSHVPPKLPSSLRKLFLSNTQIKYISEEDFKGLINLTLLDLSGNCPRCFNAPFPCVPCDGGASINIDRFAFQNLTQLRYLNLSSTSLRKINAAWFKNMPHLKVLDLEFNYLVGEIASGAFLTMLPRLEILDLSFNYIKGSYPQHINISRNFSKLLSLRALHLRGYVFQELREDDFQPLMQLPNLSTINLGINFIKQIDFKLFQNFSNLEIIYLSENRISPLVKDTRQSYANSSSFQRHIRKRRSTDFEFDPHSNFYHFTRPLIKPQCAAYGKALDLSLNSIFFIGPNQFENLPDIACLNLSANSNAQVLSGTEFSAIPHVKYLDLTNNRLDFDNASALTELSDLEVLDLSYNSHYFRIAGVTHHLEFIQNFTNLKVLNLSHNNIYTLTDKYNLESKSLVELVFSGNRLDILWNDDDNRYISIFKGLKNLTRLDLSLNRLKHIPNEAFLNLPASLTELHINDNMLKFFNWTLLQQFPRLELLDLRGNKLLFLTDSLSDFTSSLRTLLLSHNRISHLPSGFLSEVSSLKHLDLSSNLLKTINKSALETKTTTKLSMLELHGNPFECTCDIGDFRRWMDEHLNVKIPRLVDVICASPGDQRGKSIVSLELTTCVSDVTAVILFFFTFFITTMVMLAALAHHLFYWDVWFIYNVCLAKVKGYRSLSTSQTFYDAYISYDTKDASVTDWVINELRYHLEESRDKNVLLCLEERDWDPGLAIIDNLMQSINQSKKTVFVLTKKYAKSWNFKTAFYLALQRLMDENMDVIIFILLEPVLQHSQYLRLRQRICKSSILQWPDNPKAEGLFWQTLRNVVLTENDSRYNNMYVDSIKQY
How it was run: as §1

human TLR7 = biological target: T3, human TLR7 (Homo sapiens, UniProt Q9NYK1); assay: TLR7 inhibition reporter assay (HEK-Blue cells, secreted embryonic alkaline phosphatase reporter); details: HEK-Blue cells overexpressing human TLR7, stimulated with gardiquimod 7.5 μM; read-out: TLR 7 IC50
T3 construct: host or cells: HEK-Blue cells (HEK293-derived reporter line)
T3 sequence (Q9NYK1 27-1049): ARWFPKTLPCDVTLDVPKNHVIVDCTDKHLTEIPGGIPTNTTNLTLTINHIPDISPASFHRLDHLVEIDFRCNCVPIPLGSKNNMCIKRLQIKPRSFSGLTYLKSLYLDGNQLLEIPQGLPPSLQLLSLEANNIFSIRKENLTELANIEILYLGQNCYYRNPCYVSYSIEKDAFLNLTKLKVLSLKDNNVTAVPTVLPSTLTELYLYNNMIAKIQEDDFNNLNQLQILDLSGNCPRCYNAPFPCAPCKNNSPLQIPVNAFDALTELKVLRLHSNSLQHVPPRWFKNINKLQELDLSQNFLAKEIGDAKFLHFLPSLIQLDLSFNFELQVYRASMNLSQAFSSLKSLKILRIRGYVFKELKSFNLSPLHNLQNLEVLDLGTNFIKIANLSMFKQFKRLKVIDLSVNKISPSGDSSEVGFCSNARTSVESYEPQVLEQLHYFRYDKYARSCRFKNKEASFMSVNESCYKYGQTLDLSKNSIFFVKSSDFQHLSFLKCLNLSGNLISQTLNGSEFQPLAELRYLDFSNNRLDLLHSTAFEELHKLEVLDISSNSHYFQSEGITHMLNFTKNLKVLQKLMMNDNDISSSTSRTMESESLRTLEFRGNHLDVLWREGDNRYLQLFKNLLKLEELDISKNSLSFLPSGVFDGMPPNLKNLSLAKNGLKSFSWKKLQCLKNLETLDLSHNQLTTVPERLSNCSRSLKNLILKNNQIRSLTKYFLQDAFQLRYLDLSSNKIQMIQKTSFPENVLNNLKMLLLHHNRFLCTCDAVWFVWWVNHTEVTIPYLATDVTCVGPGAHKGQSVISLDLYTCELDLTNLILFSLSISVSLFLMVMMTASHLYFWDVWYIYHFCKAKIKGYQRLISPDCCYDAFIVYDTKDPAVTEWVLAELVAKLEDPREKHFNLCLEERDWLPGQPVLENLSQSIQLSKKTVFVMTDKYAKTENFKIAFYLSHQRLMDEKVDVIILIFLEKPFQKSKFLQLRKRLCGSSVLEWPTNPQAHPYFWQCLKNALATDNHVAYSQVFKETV
How it was run: as §1

[1] = HEK-Blue cells overexpressing human TLR9, stimulated with ODN2006 5 nM, read-out: TLR 9 IC50

SMILES: Cn1c(-c2ccc(S(C)(=O)=O)cc2)nc2cc(C3CCN(C4CCN(C5CCOCC5)CC4)CC3)cc(F)c21 [Example 207, 7-fluoro-1-methyl-2-(4-(methylsulfonyl)phenyl)-5-(1′-(tetrahydro-2H-pyran-4-yl)-[1,4′-bipiperidin]-4-yl)-1H-benzo[d]imidazole]
- IC50 (human TLR9): 0.11 µM
- IC50 (human TLR9; [1]): 0.11 µM
- IC50 (human TLR8): > 50 µM
- IC50 (human TLR7): 18.3 µM

SMILES: COCCN1CCC(N2CCC(c3cc(F)c4c(c3)nc(-c3ccc(S(C)(=O)=O)cc3)n4C)CC2)CC1 [Example 208, 7-fluoro-5-(1′-(2-methoxyethyl)-[1,4′-bipiperidin]-4-yl)-1-methyl-2-(4-(methylsulfonyl)phenyl)-1H-benzo[d]imidazole]
- IC50 (human TLR9): 0.94 µM
- IC50 (human TLR9; [1]): 0.937 µM
- IC50 (human TLR8): > 50 µM
- IC50 (human TLR7): > 50 µM

SMILES: CC(C)CN1C2CCC1CC(N1CCC(c3cc(F)c4c(c3)nc(-c3ccc(S(C)(=O)=O)cc3)n4C)CC1)C2 (stereo not shown) [Example 209, 7-fluoro-5-(1-(8-isobutyl-8-azabicyclo[3.2.1]octan-3-yl)piperidin-4-yl)-1-methyl-2-(4-(methylsulfonyl)phenyl)-1H-benzo[d]imidazole]
- IC50 (human TLR9): 0.081 µM
- IC50 (human TLR9; [1]): 0.081 µM
- IC50 (human TLR8): 16.7 µM
- IC50 (human TLR7): 16.7 µM

SMILES: CC(C)CN1C2CCC1CC(N1CCC(c3cc(F)c4c(c3)nc(-c3ccc(S(C)(=O)=O)cc3)n4C)CC1)C2 (stereo not shown) [Example 210, 7-fluoro-5-(1-(8-isobutyl-8-azabicyclo[3.2.1]octan-3-yl)piperidin-4-yl)-1-methyl-2-(4-(methylsulfonyl)phenyl)-1H-benzo[d]imidazole]
- IC50 (human TLR9): 0.12 µM
- IC50 (human TLR8): > 50 µM
- IC50 (human TLR7): > 50 µM

SMILES: Cn1c(-c2ccc(S(C)(=O)=O)cc2)nc2cc(C3CCN(C4CC5CCC(C4)N5C4CCOCC4)CC3)cc(F)c21 (stereo not shown) [Example 211, 7-fluoro-1-methyl-2-(4-(methylsulfonyl)phenyl)-5-(1-(8-(tetrahydro-2H-pyran-4-yl)-8-azabicyclo[3.2.1]octan-3-yl)piperidin-4-yl)-1H-benzo[d]imidazole]
- IC50 (human TLR9): 0.27 µM
- IC50 (human TLR9; [1]): 0.165 µM
- IC50 (human TLR8): > 50 µM
- IC50 (human TLR7): > 50 µM

SMILES: Cn1c(-c2ccc(S(C)(=O)=O)cc2)nc2cc(C3CCN(C4CC5CCC(C4)N5C4CCOCC4)CC3)cc(F)c21 (stereo not shown) [Example 212, 7-fluoro-1-methyl-2-(4-(methylsulfonyl)phenyl)-5-(1-(8-(tetrahydro-2H-pyran-4-yl)-8-azabicyclo[3.2.1]octan-3-yl)piperidin-4-yl)-1H-benzo[d]imidazole]
- IC50 (human TLR9): 0.46 µM
- IC50 (human TLR9; [1]): 0.456 µM
- IC50 (human TLR8): > 50 µM
- IC50 (human TLR7): > 50 µM

SMILES: Cn1c(-c2ccc(S(C)(=O)=O)cc2)nc2cc(C3CCN(C4CC5CCC(C4)N5CC4CC4)CC3)cc(F)c21 (stereo not shown) [Example 217, 5-(1-(8-(cyclopropylmethyl)-8-azabicyclo[3.2.1]octan-3-yl)piperidin-4-yl)-7-fluoro-1-methyl-2-(4-(methylsulfonyl)phenyl)-1H-benzo[d]imidazole]
- IC50 (human TLR9): 0.13 µM
- IC50 (human TLR9; [1]): 0.125 µM
- IC50 (human TLR8): > 50 µM
- IC50 (human TLR7): 12.9 µM

SMILES: Cn1c(-c2ccc(S(C)(=O)=O)cc2)nc2cc(C3CCN(C4CC5CCC(C4)N5CC4CC4)CC3)cc(F)c21 (stereo not shown) [Example 218, 5-(1-(8-(cyclopropylmethyl)-8-azabicyclo[3.2.1]octan-3-yl)piperidin-4-yl)-7-fluoro-1-methyl-2-(4-(methylsulfonyl)phenyl)-1H-benzo[d]imidazole]
- IC50 (human TLR9): 0.14 µM
- IC50 (human TLR9; [1]): 0.14 µM
- IC50 (human TLR8): 48.7 µM
- IC50 (human TLR7): 5.6 µM

SMILES: CC(C)CN1CCC(N2CCC(c3cc4c(cc3F)nc(-c3ccc(S(C)(=O)=O)cc3)n4C)CC2)CC1 [Example 221, 5-fluoro-6-(1′-isobutyl-[1,4′-bipiperidin]-4-yl)-1-methyl-2-(4-(methylsulfonyl)phenyl)-1H-benzo[d]imidazole]
- IC50 (human TLR9): 0.35 µM
- IC50 (human TLR9; [1]): 0.354 µM
- IC50 (human TLR8): > 50 µM
- IC50 (human TLR7): 7.8 µM

SMILES: Cn1c(-c2ccc(S(C)(=O)=O)cc2)nc2cc(F)c(C3CCN(C4CCN(C5CC5)CC4)CC3)cc21 [Example 222, 6-(1′-cyclopropyl-[1,4′-bipiperidin]-4-yl)-5-fluoro-1-methyl-2-(4-(methylsulfonyl)phenyl)-1H-benzo[d]imidazole]
- IC50 (human TLR9): 0.13 µM
- IC50 (human TLR9; [1]): 0.133 µM
- IC50 (human TLR8): > 50 µM
- IC50 (human TLR7): 35.6 µM

SMILES: Cn1c(-c2ccc(S(C)(=O)=O)cc2)nc2cc(F)c(C3CCN(C4CCN(C5CCC5)CC4)CC3)cc21 [Example 223, 6-(1′-cyclobutyl-[1,4′-bipiperidin]-4-yl)-5-fluoro-1-methyl-2-(4-(methylsulfonyl)phenyl)-1H-benzo[d]imidazole]
- IC50 (human TLR9): 0.29 µM
- IC50 (human TLR9; [1]): 0.29 µM
- IC50 (human TLR8): > 50 µM
- IC50 (human TLR7): > 50 µM
